These results are taken from the supplement of paper PMC8837787.

SMILES strings stand for the structures.

For the test, the system named is Saccharomyces cerevisiae ABC16-Green Monster. As to the kind of experiment: growth inhibition at single dose (up to 150 µM), below the 70% cut-off for dose-response; higher = more potent. The following applies: 18 h; 30 °C; YPD. In outline: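 Data are given as percent growth inhibition. Log-phase drug-sensitive S. cerevisiae ABC16-Green Monster cells (OD600 0.1–0.2, 200 µl per well in 96-well plates) were treated in biological duplicates with each library compound at a single 150 µM dose, with untreated cultures alongside, and OD600 was measured at 0 h and after 18 h at 30 °C. Compounds falling below 70% in both replicates were not taken to dose-response.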

As to `CS(=O)(=O)N1CCC(Cn2nc(Cc3cccc4ccccc34)c3c(N)ncnc32)CC1`, the “growth inhibition at single dose” value is under 70%.
Regarding `O=C(c1cnc2cc3c(cc2c1)OCCO3)c1cc(F)ccc1O`, the “growth inhibition at single dose” value is under 70%.
The same measure for `Cc1ccc(C(=O)OC(C)C(=O)N2CCCC2)cc1S(=O)(=O)N1CCCCC1` (centres undefined): under 70%.
Next, `O=C(Nc1cc(Cl)cc(Cl)c1)Nc1cc(Cl)cc(Cl)c1`: under 70%.
With `CCOc1c(Br)cc(C2C(C(=O)OC)=CN(C)C=C2C(=O)OC)cc1OC`, the “growth inhibition at single dose” value is under 70%.
The same measure for `CC(C)(C)c1ccc(C(=O)Nc2cc(F)ccc2F)s1`: under 70%; for `O=C(NCC(c1ccsc1)N1CCCCCC1)c1ccc(C(F)(F)F)cc1` (centres undefined): under 70%; for `Cc1ccccc1-n1c(C)cc(/C=C(\C#N)C(=O)NCC2CCCO2)c1C` (centres undefined): under 70%.
Next, `COc1ccc(-c2nc(-c3cccc(NC(=O)Cc4ccc(F)cc4)c3)no2)cc1OC`: under 70%; `Cc1ccc(NS(=O)(=O)c2ccc(C(=O)Nc3ncccc3O)cc2)cc1C`: under 70%; `CC(C)c1ccc(C2C3CCc4ccccc4C3=NN2C)cc1` (centres undefined): under 70%.
For the molecule `CCOc1c(Cl)cc(CNC(C)C(O)c2ccccc2)cc1OC` (centres undefined), the “growth inhibition at single dose” value is under 70%.
`CCC(Sc1nc2ccccc2o1)C(=O)Nc1nccs1` (centres undefined): the “growth inhibition at single dose” value is under 70%.
The same measure for `CNc1snc(C)c1C(=O)NCc1ccc(COCC(F)(F)F)cc1`: under 70%.
The same measure for `O=C(NCCCN1CCC(N2CCCCC2)CC1)C1=Cc2cc(Br)ccc2OC1`: under 70%.
Next, `CCOC(=O)c1sc(N)c(C#N)c1COC(=O)c1c(CC)noc1C`: under 70%; `Cc1ccc(CN2CCC(C(=O)Nc3ccc(-c4cc5ccccc5[nH]4)cc3)CC2)o1`: under 70%; `O=C(Cn1nnc2ccccc2c1=O)c1ccc(C2CCCCC2)cc1`: under 70%.
`COc1ccc(-c2cncc3ccc(C(=O)NCCCn4ccnc4)nc23)cc1`: the “growth inhibition at single dose” value was under 70%.
Next, `COc1cccc(N(C)S(=O)(=O)c2cccc3cc(C)cnc23)n1`: under 70%; `CC(C)c1ccc(CNCC(O)c2ccccc2)cc1` (centres undefined): under 70%; `COc1ccc(-c2cc3ncnc(NCc4ccc(N5CCN(C)CC5)nc4)c3s2)cc1`: under 70%.
Next, `COC(=O)CCSc1c2ccc(Cl)cc2nc2ccc(OC)cc12`: under 70%.
As for `Cc1ccc(F)cc1NC(=O)c1cc(Cl)ccc1Nc1ccccc1`, the “growth inhibition at single dose” value is under 70%.
Turning to `OC(Cn1nnc2ccccc21)Cn1c2ccc(Br)cc2c2cc(Br)ccc21` (centres undefined), the “growth inhibition at single dose” value was under 70%.
In the case of `CCCCC(O)(c1ccc(Cl)cc1)C(CN1CCOCC1)c1ccc(Cl)cc1` (centres undefined), the “growth inhibition at single dose” value is under 70%.
As for `CCOc1cccc(C(=O)Nc2ccc(-c3nc4ccccc4[nH]3)cc2)c1`, the “growth inhibition at single dose” value was under 70%.
Next, `Cc1ccc(NC(=O)c2cnn(C(C)(C)C)c2C)cc1F`: under 70%.
With `CCc1sc(C(=O)Nc2cnc3ccccc3c2)cc1C`, the “growth inhibition at single dose” value is under 70%.
Regarding `Cc1ccccc1-n1nnc(C(=O)Nc2cccc(Br)c2)c1N`, the “growth inhibition at single dose” value is under 70%.
Next, `Cc1nccc(-c2cccc(N/N=C(\C#N)S(=O)(=O)c3ccccn3)c2)n1`: under 70%; `Nc1nc2ccc(-c3cncc(Oc4ccc(F)cc4)c3)cc2[nH]1`: under 70%.
Take `CC(C(=O)NC(N)=O)N(C)Cc1ccc(OCc2ccc(Cl)cc2)cc1` (centres undefined): the “growth inhibition at single dose” value was under 70%.
As to `O=c1c2ccccc2cnn1-c1nc2ccccc2[nH]1`, the “growth inhibition at single dose” value is under 70%.
